Measured values reported in patent US6133258A, “Inhibitor of kainic acid neurotoxicity and pyridothiazine derivative” (Yamanouchi Pharmaceutical Co., Ltd., priority 1995, dated 2000).

Experiments:
[1] = tested on: NMDA excitotoxicity or experimental animal models for epilepsy, cerebral ischemia; details: literature; cited from earlier work
[2] = tested on: DBA/2 mice; assay: Audiogenic seizure inhibitory action (anticonvulsant effect) in DBA/2 mice; type: in vivo; details: Mus musculus, ip, 0.75 h; i.p. 45 minutes before sound stimulation (12 kHz, 120 dB); ten male 21 to 28-day-old mice; read-out: Anticonvulsant effect for audiogenic seizure in DBA/2 mice, minimum effective dose
Description: 2) Measurement of audiogenic seizure inhibitory action in DBA/2 mice
The test compound was suspended in a 0.5% methylcellulose solution and the resulting suspension was intraperitoneally administered 45 minutes before the stimulation by the sound. The drug efficacy was evaluated by presence or absence of the appearance of seizure and the minimum effective dose was determined.

[3] = tested on: primary rat hippocampal cultures; assay: Inhibition of kainic acid neurotoxicity (LDH release) in primary rat hippocampal cultures; type: cell-based; details: Hippocampal neuron; 300 μM kainic acid, 24 hours, primary rat hippocampal neurons, lactate dehydrogenase release
Description: 1) Inhibition of kainic acid neurotoxicity
The effect of the compound of the present invention for inhibiting kainic acid neurotoxicity was studied using primary rat hippocampal cultures.
(1) Incubation conditions
The hippocampus was dissected from a brain of the 18 to 20-day-old fetal rat and was subjected to enzyme treatment with papain and DNase I to disperse the cells. The cells so obtained were suspended in MEM containing 10% serum and plated on poly-L-lysine coated 48-well plates at a density of 4×10^5 cells/cm^2. Twenty four hours later, the medium was replaced by a serum-free medium. The medium was changed twice a week. The cells which were cultured for at least 6 days were provided for the following test.
(2) Inhibition against kainic acid neurotoxicity
Neurotoxicity was assessed by an activity of lactate dehydrogenase released into the culture medium from destroyed cells. As a control, neurons which were exposed to a serum-free medium containing 300 μM kainic acid for 24 hours were used. Each compound, together with 300 μM kainic acid, was allowed to act on the neuron for 24 hours and inhibitory action of each compound against kainic acid neurotoxicity was evaluated.

[4] = tested on: AMPA receptor; details: literature; cited from earlier work
[5] = tested on: experimental animal model for cerebral ischemia; details: literature; cited from earlier work
[6] = tested on: AMPA-induced cell death; details: literature; cited from earlier work

| Structure (SMILES) | minimal effective dose [2] [mg/kg] | IC50 [3] [nM] | effect in experimental animal model for cerebral ischemia [5] | also measured |
| --- | --- | --- | --- | --- |
| NC(CCCP(=O)(O)O)C(=O)O (centres unmarked) [2-amino-5-phosphonovaleric acid] | – | – | – | protective effect against NMDA excitotoxicity or in experimental animal models for epilepsy, cerebral ischemia, etc. [1]: protective against NMDA excitotoxicity or in experimental animal models for epilepsy, cerebral ischemia, etc. |
| NC(CCCCCP(=O)(O)O)C(=O)O (centres unmarked) [2-amino-7-phosphonoheptanoic acid] | – | – | – | protective effect against NMDA excitotoxicity or in experimental animal models for epilepsy, cerebral ischemia, etc. [1]: protective against NMDA excitotoxicity or in experimental animal models for epilepsy, cerebral ischemia, etc. |
| CN(c1ccc(Br)cc1)c1nc(=O)c2cccnc2s1 [16-2), 2-[N-(4-Bromophenyl)-N-methylamino]-4H-pyrido[3,2-e]-1,3-thiazin-4-one] | 30 | 1000 | – | – |
| CN(c1ccc(Cl)cc1)c1nc(=O)c2cccnc2s1 [Example 64, 2-[N-(4-Chlorophenyl)-N-methylamino]-4H pyrido[3,2-e]-1,3-thiazin-4-one] | 10 | 1400 | – | – |
| Cc1cccc(N(C)c2nc(=O)c3cccnc3s2)c1 [Example 72, 2-[N-Methyl-N-(3-methylphenyl)amino]-4H-pyrido[3,2-e]-1,3-thiazin-4-one] | 30 | 1900 | – | – |
| CC1=NN=C(c2ccc(N)cc2)c2cc3c(cc2C1)OCO3 [GYKI52466] | – | – | effective in an experimental animal model for cerebral ischemia | effect on AMPA receptor desensitization [4]: counteracts the inhibition of desensitization by cyclothiazide |
| NC1CCN(O)C1=O (centres unmarked) [HA-966] | – | – | effective in an experimental animal model for cerebral ischemia | – |
| NS(=O)(=O)c1cccc2c1c([N+](=O)[O-])cc1[nH]c(=O)c(=O)[nH]c12 [NBQX] | – | – | effective in the experimental animal model for cerebral ischemia | – |
| NS(=O)(=O)c1cc2c(cc1Cl)NC(C1CC3C=CC1C3)NS2(=O)=O (centres unmarked) [cyclothiazide] | – | – | – | effect on AMPA-induced cell death [6]: accelerate AMPA-induced cell death; effect on AMPA receptor desensitization [4]: desensitization inhibitor |
